Test results published in patent US3950334A, “O-Alkyl-S-alkyl-O-[6-alkyl- or 6-halo-pyridazin-(3)-yl]-(thiono)thiol-phosphoric acid esters” (priority 1973, dated 1976).

Experiments:
Musca domestica = assay: LT100 test for Diptera; assay type: in vivo; conditions: time for 100% destruction
Procedure: Test insects: Musca domestica
2 parts by weight of active compound were dissoled in 1,000 parts by volume of solvent. The solution so obtained was diluted with further solvent to the desired lower concentrations.
2.5 ml of the solution of active compound were pipetted into a Petri dish. On the bottom of the Petri dish there was a filter paper with a diameter of about 9.5 cm. The Petri dish remained uncovered until the solvent had completely evaporated. The amount of active compound per m^2 of filter paper varied with the concentration of the solution of active compound. About 25 test insects were then placed in the Petri dish and it was covered with a glass lid.
The condition of the test insects was continuously observed. The time which was necessary for 100% destruction was determined.
The test insects, the active compounds, the concentrations of the active compounds and the times at which there was 100% destruction can be seen from the following table: […]

Toxicity test/peroral = conditions: in vivo, po; Albino rat, peroral, evaluation after 7 days
Procedure: Test animal: Albino rat (Rattus norvegicus)
To produce a suitable preparation of active compound, 3 parts by weight of active compound were mixed with 2.8 parts by weight of highly-dispersible silica and 4.2 parts by weight of talc. Suspensions which contained, in 1 ml of liquid, the amount of active compound to be applied per 100 g of animal weight, were prepared from the above active-compound concentrate, with a little added powdered vegetable gum, by grinding with water. Dosing was effected volumetrically after weighing the test animals. A steel knob-ended probe was used for oral administration. The evaluation was carried out in each case after the end of the above-mentioned time interval, calculated from the administration of the active compound.
The LD50 values (dose of active compound at which 50% of the treated animals were killed) were determined in the usual manner from the mortality figures of the doses, which were varied in geometrical progression.
The active compounds and LD50 values can be seen from the table which follows: […]

[1] = system: two-spotted spider mite (Tetranychus urticae); assay: Tetranychus test (resistant); assay type: in vivo; conditions: 48 h, after 2 days, resistant Tetranychus urticae on bean plants, read-out: Degree of destruction in % after 2 days; for mortality at 0.01 %: active compound concentration 0.01 %; for mortality at 0.1 %: active compound concentration 0.1 %
Procedure: Tetranychus test (resistant)
Solvent: 3 parts by weight of acetone
Emulsifier: 1 part by weight of alkylaryl polyglycol ether
To produce a suitable preparation of active compound, 1 part by weight of the active compound was mixed with the stated amount of solvent containing the stated amount of emulsifier and the concentrate was diluted with water to the desired concentration.
These bean plants were heavily infested with the two-spotted spider mite (Tetranychus urticae) in all stages of development.
After the specified periods of time, the effectiveness of the preparation of active compound was determined by counting the dead mites. The degree of destruction thus obtained was expressed as a percentage: 100% means that all the spider mites were killed, whereas 0% means that none of the spider mites were killed.
The active compounds, the concentrations of the active compounds, the evaluation times and the results can be seen from the following table: […]

warm-blooded animals = conditions: in words; known compounds; cited from earlier work
[2] = active compound concentration of the solution 0.02 %
[3] = active compound concentration of the solution 0.2 %

## CCCSP(=S)(OCC)Oc1ccc(Cl)nn1 (stereo not drawn) [Compound 3]
Musca domestica; [2]
  LT100 in minutes ('): 165 min
Musca domestica; [3]
  LT100 in minutes ('): 55 min
Toxicity test/peroral
  LD50 at 168 h: 100 to 250 mg/kg

## CCCSP(=S)(OCC)Oc1ccc(Br)nn1 (stereo not drawn) [Compound 1, O-ethyl-S-n-propyl-O-[6-bromo-pyridazin(3)-yl]-thionothiolphosphoric acid ester]
Toxicity test/peroral
  LD50 at 168 h: 100 to 250 mg/kg
[1]
  mortality at 0.01 %: 100%
  mortality at 0.1 %: 100%

## CCCSP(=S)(OCC)Oc1ccc(C)nn1 (stereo not drawn) [Compound 2]
Toxicity test/peroral
  LD50 at 168 h: ~50 mg/kg

## CCOP(=S)(OCC)Oc1ccc(C)nn1 [Compound B, O,O-diethyl-O-[6-methyl-pyridazin-(3)-yl]-thionophosphoric acid ester]
warm-blooded animals
  toxicity to warm-blooded animals: high toxicity to warm-blooded animals
Musca domestica; [2]
  LT100 in hours: 8 h
Musca domestica; [3]
  LT100 in minutes ('): 135 min
Toxicity test/peroral
  LD50 at 168 h: 0.5 to 1 mg/kg
[1]
  mortality at 0.01 %: 20%
  mortality at 0.1 %: 100%

## CCOP(=S)(OCC)Oc1ccc(Cl)nn1 [Compound A, O,O-diethyl-O-[6-chloro-pyridazin-(3)-yl]-thionophosphoric acid ester]
warm-blooded animals
  toxicity to warm-blooded animals: high toxicity to warm-blooded animals
Toxicity test/peroral
  LD50 at 168 h: ~5 mg/kg
